Laboratory results as given in ChEMBL document CHEMBL2157937, “Discovery and optimization of C-2 methyl imidazopyrrolopyridines as potent and orally bioavailable JAK1 inhibitors with selectivity over JAK2” (J Med Chem, 2012).
Converted amounts (≈) assume the structure as drawn.

Columns and labels:
physchem [1] = conditions: octanol/PBS buffer, pH 7.2
in vitro [2] = conditions: human, hepatocytes
in vitro [3] = conditions: Sprague-Dawley, rat, hepatocytes
in vivo [4] = conditions: Sprague-Dawley, rat, po, 2 mg/kg
in vivo [5] = conditions: Sprague-Dawley, rat, po, 0.4 mg/kg
physchem [6] = conditions: buffer, pH 2
in vivo [7] = conditions: Sprague-Dawley, rat, plasma, po, 2 mg/kg
physchem [8] = conditions: buffer, pH 7.4
in vivo [9] = conditions: Sprague-Dawley, rat, iv, 0.4 mg/kg
Rattus norvegicus = species on record: Rattus norvegicus; conditions: in vivo, po, 2 mg/kg
in vivo [10] = conditions: rat, po, 2 mg/kg
in vivo [11] = conditions: rat, po, 2 mg/kg; remark: listed apart in the source
[12] = Clearance in rat at 2 mg/kg, po; type: ADME, organism-based; design: dose 2 mg/kg, route oral; conditions: in vivo
[13] = AUC in rat at 2 mg/kg, po; type: ADME, organism-based; design: dose 2 mg/kg, route oral; conditions: plasma

Cc1nc2cnc3[nH]ccc3c2n1[C@H]1CCCNC1
logD at 1 h, 10000 µM (physchem [1]): 0.6
half-life at 1 µM (in vitro [2]): > 8 h

Cc1nc2cnc3[nH]ccc3c2n1[C@@H]1CCNC[C@@H]1F (relative stereo)
logD at 1 h, 10000 µM (physchem [1]): 0.7

Cc1nc2cnc3[nH]ccc3c2n1C1CCNCC1
half-life at 1 µM (in vitro [3]): > 8 h
bioavailability (in vivo [4]): 4%
Cmax (in vivo [5]): 60 nM
logD at 1 h, 10000 µM (physchem [1]): 0.1
half-life at 1 µM (in vitro [2]): > 8 h
solubility thermodynamic at 24 h (physchem [6]): > 5000 µM
AUC (in vivo [7]): 0.12 µM·h
solubility thermodynamic at 24 h (physchem [8]): > 1500 µM
clearance (in vivo [9]): 43 mL/min/kg

Cc1nc2cnc3[nH]ccc3c2n1[C@@H]1CCNC[C@H]1F (relative stereo)
half-life at 1 µM (in vitro [3]): 1.6 h
Cmax (in vivo [5]): 4500 nM
logD at 1 h, 10000 µM (physchem [1]): 1.2
half-life at 1 µM (in vitro [2]): 1.8 h
AUC (in vivo [7]): 5.3 µM·h
F (Rattus norvegicus): 172%
solubility thermodynamic at 24 h (physchem [8]): > 1500 µM
clearance (in vivo [9]): 40 mL/min/kg

Cc1nc2cnc3[nH]ccc3c2n1C1CCN(CCC#N)CC1
logD at 1 h, 10000 µM (physchem [1]): 1.3
half-life at 1 µM (in vitro [2]): > 8 h

Cc1nc2cnc3[nH]ccc3c2n1[C@H]1CC[C@H](NS(C)(=O)=O)CC1
logD at 1 h, 10000 µM (physchem [1]): 1.2
half-life at 1 µM (in vitro [2]): > 8 h

Cc1nc2cnc3[nH]ccc3c2n1[C@H]1CC[C@H](NCCC#N)CC1
half-life at 1 µM (in vitro [3]): > 8 h
bioavailability (in vivo [4]): 13%
Cmax (in vivo [5]): 150 nM
logD at 1 h, 10000 µM (physchem [1]): 0.9
half-life at 1 µM (in vitro [2]): > 8 h
solubility thermodynamic at 24 h (physchem [6]): > 5000 µM
AUC (in vivo [7]): 0.18 µM·h
solubility thermodynamic at 24 h (physchem [8]): > 1500 µM
clearance (in vivo [9]): 80 mL/min/kg

COC(=O)N[C@H]1CC[C@H](n2c(C)nc3cnc4[nH]ccc4c32)CC1
half-life at 1 µM (in vitro [3]): 3.5 h
bioavailability (in vivo [4]): 54%
Cmax (in vivo [5]): 550 nM
logD at 1 h, 10000 µM (physchem [1]): 2
half-life at 1 µM (in vitro [2]): 3.9 h
solubility thermodynamic at 24 h (physchem [6]): 2300 µM (≈ 753 µg/mL)
AUC (in vivo [7]): 1.4 µM·h
solubility thermodynamic at 24 h (physchem [8]): 40 µM (≈ 13.1 µg/mL)
clearance (in vivo [9]): 40 mL/min/kg

Cc1nc2cnc3[nH]ccc3c2n1[C@H]1CCCOC1
logD at 1 h, 10000 µM (physchem [1]): 1.8
half-life at 1 µM (in vitro [2]): 6.3 h

Cc1nc2cnc3[nH]ccc3c2n1[C@@H]1CCCC[C@H]1O (relative stereo)
logD at 1 h, 10000 µM (physchem [1]): 1.6
half-life at 1 µM (in vitro [2]): > 8 h

CC(=O)N[C@H]1CC[C@H](n2c(C)nc3cnc4[nH]ccc4c32)CC1
logD at 1 h, 10000 µM (physchem [1]): 1.1

Cc1nc2cnc3[nH]ccc3c2n1[C@H]1CC[C@@H](O)CC1
logD at 1 h, 10000 µM (physchem [1]): 1.4
half-life at 1 µM (in vitro [2]): > 8 h

C[C@@H]1CCN(C(=O)CC#N)C[C@@H]1N(C)c1ncnc2[nH]ccc12 [TOFACITINIB]
Cmax (in vivo [10]): 1700 nM
bioavailability (in vivo [11]): 87%
CL/F [12]: 43 mL/min/kg
AUC [13]: 2.1 µM·h

Cc1nc2cnc3[nH]ccc3c2n1[C@H]1CC[C@H](O)CC1
logD at 1 h, 10000 µM (physchem [1]): 1.4
half-life at 1 µM (in vitro [2]): > 8 h
